Laboratory results: patent US20230135945A1, “Method for Measuring Modulation in the Activity of a G Protein-Coupled Receptor” (CISBIO BIOASSAYS, priority 2017, published 2023)
“Also recorded” adds a separate entry of the source. Where no end group is shown, it is not given here.

Tests used:
[1] = biological target: T1, 5HT1A (Homo sapiens, UniProt P08908); assay: Activation test format 2B on 5HT1A membranes (Example 7); format: biochemical; conditions: HEK293 membranes 10 μg/well, GTPγS 100 nM, agonist 1 μM (FIG. 10)
T1 construct: purchased Perkin Elmer RBHS1AM400UA; host or cells: HEK293-EBNA
T1 sequence (P08908 1-422): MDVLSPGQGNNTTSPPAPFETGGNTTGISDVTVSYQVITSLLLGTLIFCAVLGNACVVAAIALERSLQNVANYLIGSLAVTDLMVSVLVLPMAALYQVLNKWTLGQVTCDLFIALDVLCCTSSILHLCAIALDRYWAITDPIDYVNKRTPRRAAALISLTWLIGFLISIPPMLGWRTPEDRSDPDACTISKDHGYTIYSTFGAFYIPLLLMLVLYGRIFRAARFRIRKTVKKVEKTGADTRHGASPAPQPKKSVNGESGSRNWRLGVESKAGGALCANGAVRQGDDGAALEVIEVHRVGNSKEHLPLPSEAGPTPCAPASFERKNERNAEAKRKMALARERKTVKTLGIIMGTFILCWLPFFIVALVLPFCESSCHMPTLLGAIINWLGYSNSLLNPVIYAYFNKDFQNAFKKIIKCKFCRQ
Protocol: (§1) All reagents were diluted in TrisHCl 50 mM pH 7.4, MgCl2 10 mM, NaCl 10 mM, BSA 0.1% buffer. The membranes were prepared 4× to distribute 1 μg/well (except for other specifications). The GDP, GTP or GTPγS nucleotides and test compounds (agonists or antagonists) were pre-mixed and prepared 4× to obtain the final concentrations in the wells mentioned in the graphs. […]
(§2) The plates were incubated at 21° C. for 3 h or 20 h and then the HTRF signal was measured on the PHERAstar reader (BMG Labtech) with the following configuration: • Module: HTRF (Excitation 337nm, Emission 665nm and 620nm) • Excitation: laser, 40 flashes • Reading window: delays: 60 μs—Integration: 400 μs

[2] = biological target: T2, Delta Opioid GPCR (Homo sapiens, UniProt P41143); assay: Activation test according to format 1A (TR-FRET, empty Galpha vs GDP-bound full form), HEK293 membranes; format: biochemical; conditions: GDP 10 μM
T2 construct: purchased Perkin Elmer 6110549400UA (HEK293)
T2 sequence (P41143 whole entry): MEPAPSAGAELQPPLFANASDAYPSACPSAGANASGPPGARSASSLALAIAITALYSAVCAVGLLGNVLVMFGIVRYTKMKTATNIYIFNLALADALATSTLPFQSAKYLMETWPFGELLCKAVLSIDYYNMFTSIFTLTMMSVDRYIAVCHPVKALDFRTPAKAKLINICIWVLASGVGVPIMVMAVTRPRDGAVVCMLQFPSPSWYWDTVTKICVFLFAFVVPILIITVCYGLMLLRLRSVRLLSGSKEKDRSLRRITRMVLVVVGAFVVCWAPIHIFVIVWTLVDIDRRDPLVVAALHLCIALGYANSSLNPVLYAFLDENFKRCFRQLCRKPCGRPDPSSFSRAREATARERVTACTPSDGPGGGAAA
Protocol: as §1
as §2, with “400 μs […]” for “400 μs”

[3] = biological target: T2, Delta Opioid GPCR; assay: Activation test according to format 2A (TR-FRET, empty Galpha vs GTP/GTPγS-bound full form), HEK293 membranes; format: biochemical
[4] = biological target: T2, Delta Opioid GPCR; assay: Activation test according to format 2B (TR-FRET, full Galpha bound to GTPγS vs empty form), membranes expressing Delta Opioid GPCR and Galphai protein; format: biochemical; conditions: for TR-FRET signal (HTRF ratio), inhibition of agonist activation by antagonist: SNC162 fixed 10 nM
Protocol: All reagents were diluted in TrisHCl 50 mM pH 7.4, MgCl2 10 mM, NaCl 10 mM, BSA 0.1% buffer. The membranes were prepared 4× to distribute 1 μg/well (except for other specifications). The GDP, GTP or GTPγS nucleotides and test compounds (agonists or antagonists) were pre-mixed and prepared 4× to obtain the final concentrations in the wells mentioned in the graphs. All anti-Galphai reagents used for detection were prepared 4× to target the following final concentrations in the following wells: sdAbs-d2 (50 nM); antibody SC13533-d2 (0.1 nM); antibody SC13533-Lumi4Tb (0.25 nM); antibody DSV36S-d2 (0.1 nM); antibody DSV36S-Lumi4Tb (0.25 nM); antibody DSV3S-d2 (10 nM); antibody DSV39S-d2 (10 nM); antibody DSV26S-Lumi4Tb (0.25 nM); peptide KB1753-Biotin (50 nM) in combination with streptavidin-XL665 (SA-XL) (25 nM) (pre-incubated 30 minutes at room temperature before distribution in plates). • Distribution of reagents in the 384-well plates: • Membranes expressing GPCR and G protein: 5 μL • Nucleotides (GDP or GTP or GTPγS) ±Test compounds (agonists and/or antagonists): 5 μL • Anti-Galphai-acceptor ligand (d2 or XL665): 5 μL • Anti-Galphai-donor ligand (Lumi4Tb): 5 μL
as §2
After activation of GPCR and Galpha protein by a GPCR agonist, the decrease in the proportion of the full Galpha protein form bound to GTP or bound to GTPγS (due to an increase in the proportion of the empty Galpha protein form) is specifically detected using two ligands labeled with RET partners. Activation of GPCR results in a decrease in the RET signal.
In a second step, the ability of a GPCR agonist to modulate the proportion of Galpha protein in empty form was tested with the same membranes and detection ligand pairs. HEK293 cell membranes expressing Delta Opioid GPCR and Galphai protein were incubated with GTPγS (10 nM) and GPCR agonist (SNC162) in increasing concentration. […] In a second condition, activation with a fixed concentration of GPCR agonist SNC162 (10 nM) was inhibited by an increasing concentration of GPCR antagonist (Naltrindole).
On the other hand, membranes (10 μg/wells) of HEK293 or CHO-K1 cells expressing the Delta Opioid GPCR and Galphai protein were incubated with GTPγS (100 nM) alone or in combination with a saturated fixed concentration (1 μM) of the receptor agonist (SNC162).
In a first condition, HEK293 cell membranes expressing Delta Opioid GPCR and Galphai protein were incubated with GTPγS (10 nM) and a GPCR agonist (SNC162) in increasing concentration.

[5] = system: Galpha protein; assay: Binding specificity of detection ligands for the forms of the Galpha protein
Protocol: In order to evaluate the selectivity of antibodies between the different forms of the Galphai1 protein (GDP-bound full form vs. GTPgS-bound full form vs. empty form), the test was performed in parallel on TST-Galphai1 protein conditions pre-incubated in the buffer containing either GDP at 1 μM, GTPgS at 1 μM or no nucleotide. The best hybridomas were then cloned with a limit dilution step to obtain hybridoma clones.
• the anti-Galphai antibody SC13533 was purchased from Santa Cruz Biotechnology (catalogue number SC13533). […] The antibodies were labeled with compatible fluorescent probes for TR-FRET detection (red—d2 acceptor or Lumi4Tb donor).

Molecule: NCCc1c[nH]c2ccc(O)cc12 [serotonin]
- TR-FRET signal (HTRF ratio) generated by stimulation with the receptor agonist [1]: decrease in the TR-FRET signal

Molecule: Oc1ccc2c3c1O[C@H]1c4[nH]c5ccccc5c4C[C@@]4(O)[C@@H](C2)N(CC2CC2)CC[C@]314 [Naltrindole]
- TR-FRET signal (HTRF ratio), inhibition of agonist activation by antagonist ([2]; SNC162 fixed 10 nM, antagonist in increasing concentration (FIG. 8B)): decrease in the TR-FRET signal
- TR-FRET signal (HTRF ratio), inhibition of agonist activation by antagonist ([3]; GTPγS 10 nM, SNC162 fixed 10 nM, antagonist in increasing concentration (FIG. 9B)): decrease in the TR-FRET signal
- TR-FRET signal (HTRF ratio), inhibition of agonist activation by antagonist ([4]; Example 9, format 2B, GTPγS 10 nM, antagonist in increasing concentration (FIG. 12B)): increase in the TR-FRET signal
- TR-FRET signal (HTRF ratio), inhibition of agonist activation by antagonist ([4]; Example 10, format 2B, GTPγS 10 nM, antagonist in increasing concentration, FIGS. 13B-18B): increase in the TR-FRET signal
- TR-FRET signal (HTRF ratio), inhibition of agonist activation by antagonist ([4]; format 2B, HEK293 membranes, GTPγS 10 nM, antagonist in increasing concentration, Examples 1-3): increase in the TR-FRET signal

Molecule: C=CCN1C[C@H](C)N([C@@H](c2ccccc2)c2ccc(C(=O)N(CC)CC)cc2)C[C@H]1C [SNC162]
- TR-FRET signal (HTRF ratio) generated by stimulation with the agonist ([2]; agonist in increasing concentration, DSV39S-d2 + DSV26S-Lumi4Tb (FIG. 8B)): increase in the TR-FRET signal
- TR-FRET signal (HTRF ratio) generated by stimulation with the agonist ([3]; Example 8, GTP 50, 1000 or 20000 nM, agonist 1 μM, membranes 1 μg/well, amplitude lower than with GTPγS (FIG. 11)): increase in the TR-FRET signal
- TR-FRET signal (HTRF ratio) generated by stimulation with the agonist ([3]; Example 8, GTPγS 50, 1000 or 20000 nM, agonist 1 μM, membranes 1 μg/well (FIG. 11)): increase in the TR-FRET signal
- TR-FRET signal (HTRF ratio) generated by stimulation with the agonist ([3]; GTPγS 10 nM, agonist in increasing concentration, DSV39S-d2 + DSV26S-Lumi4Tb (FIG. 9B)): increase in the TR-FRET signal
- TR-FRET signal (HTRF ratio) generated by stimulation with the agonist ([4]; Example 7, CHO-K1 membranes 10 μg/well, GTPγS 100 nM, agonist 1 μM (FIG. 10)): decrease in the TR-FRET signal
- TR-FRET signal (HTRF ratio) generated by stimulation with the receptor agonist ([4]; Example 7, HEK293 membranes 10 μg/well, GTPγS 100 nM, agonist 1 μM, KB1753-biotin/SA-XL + SC13533-Lumi4Tb (FIG. 10)): decrease in the TR-FRET signal
- TR-FRET signal (HTRF ratio) generated by stimulation with the agonist ([4]; Example 9, format 2B, GTPγS 10 nM, agonist in increasing concentration, DSV36S-Lumi4Tb/SC13533-d2 (FIG. 12B)): decrease in the TR-FRET signal
- TR-FRET signal (HTRF ratio) generated by stimulation with the agonist ([4]; Example 10, format 2B, GTPγS 10 nM, agonist in increasing concentration, sdAb-d2 ligand pairs (FIGS. 13B-19B)): decrease in the TR-FRET signal
- TR-FRET signal (HTRF ratio) generated by stimulation with the agonist ([4]; format 2B, HEK293 membranes, GTPγS 10 nM, agonist in increasing concentration, detection ligand pairs of Examples 1-4 (FIGS. 4B-7B)): decrease in the TR-FRET signal

Molecule: Ser-Ser-Arg-Gly-Tyr-Tyr-His-Gly-Ile-Trp-Val-Gly-Glu-Glu-Gly-Arg-Leu-Ser-Arg (SSRGYYHGIWVGEEGRLSR; also: biotinylated, place not given here) [KB1753, biotinylated form generated by Cisbio Bioassays]
- Form of the Galpha protein specifically bound (empty, GDP-bound, GTP/non-hydrolyzable GTP-bound) [5]: specifically binds the form of the Galpha GTP or GTP protein that is non-hydrolyzable or slowly hydrolyzable relative to the forms of the empty Galpha protein and GDP; also recorded: specifically recognizes the full Galpha protein bound to GTP

B1: DSV36S: anti-Galphai antibody generated by Cisbio Bioassays (antibody, V domains shown)
VH: EVQLQQSGAELVRPGALVKLSCKASGFNIKDYYMHWVKQRPEQGLEWIGWIDPENGNTIYDPKFQGKASITADTSSNTAYLQLSSLTSEDTAVYYCTRGGGYYSDWYFDVWGAGTTVTVSS
VL: QIVLTQSPAIMSASPGEKVTMTCSASSSVSYMHWYQQKSGTSPKRWIYDTSKLASGVPARFSGSGSGTSYSLTISSMEAEDAATYYCQQWSSNPPITFGAGTKLELK
- Form of the Galpha protein specifically bound (empty, GDP-bound, GTP/non-hydrolyzable GTP-bound) [5]: specifically binds the form of the Galpha GTP or GTP protein that is non-hydrolyzable or slowly hydrolyzable relative to the forms of the empty Galpha protein and GDP
